“And” between values parts separate entries of the source, which are not always exact repeats. Identical values can stand only once.
Experiments:
A2780-ADR cells = experiment: MTT viability assay, reversal of MDR in P-gp overexpressing A2780-ADR cells; format: cell-based, human; settings: for % Survival (individual sample): single samples (trials 1-3, samples 1-4)
Experimental: The chemotherapeutic sensitive DU145 human prostate cancer cells and the multidrug resistant sub-line, DU145-TXR, were generous gifts from Dr. Evan Keller (University of Michigan, Ann Arbor, MI). The MDR, P-gp overexpressing DU145-TXR cells were maintained under positive selection pressure by supplementing complete medium with 10 nM paclitaxel (Acros Organics, NJ). In addition to the aforementioned cell lines, the chemotherapeutic sensitive A2780 ovarian cancer cells (93112519, Sigma) and the multidrug resistant A2780-ADR (93112520, Sigma) were maintained in complete RPMI media consisting of RPMI-1640 with L-glutamine, 10% fetal bovine serum (FBS; Corning), 100 U/mL penicillin and 100 μg/mL streptomycin in a humidified incubator at 37 °C and 5% CO2. The MDR, P-gp overexpressing A2780-ADR cell line was maintained under positive selection pressure by supplementing complete medium with 100 nM doxorubicin (Fisher Scientific, NJ). The non-cancerous HFL1 (human lung fibroblast) cell line cell line was a generous gift from Dr. Robert Harrod (Southern Methodist University, Dallas, TX) and was maintained in complete F12K media consisting of F12K with 10% fetal bovine serum, 100 U/mL penicillin, and 100 µg/mL streptomycin (Gibco). Flasks and 96 well plates that were used with the non-cancerous line HFL1 were pre-treated with 0.1 mg/ml Collagen Type 1 (Gibco) and rinsed with PBS (Fisher).
Culture of the DU145, DU145-TXR, and HFL1 cell lines was performed as described in [8]. Culture of the A2780 and A2780-ADR cell lines was performed as described in [9]. MTT assays were performed as described in [8] with minor modifications. LC-MS/MS accumulation assays were performed as described in {Nanayakkara, 2018 #173} [9] with some modifications. […] The inhibitor concentration was lowered to 15 µM here, as the goal of the study was to identify compounds that were effective in reversing MDR at low concentrations, and to determine if the expanded virtual-assisted methods improved on our first-draft attempt. Compounds 56–98 were pre-screened using Resazurin cell viability assays: cells were incubated with 15 µM compound with or without 500 nM PTX for 48 hours, after which cell survival was assessed similar to [39]. Data represent the mean of two separate experiments, with n = 3 samples per experiment (n = 6 total) (S4 Table). The top performing compounds from this initial screen were re-tested with MTT viability assays against DU145-TXR cells, as described below.
MTT assays measure the reduction of yellow, water soluble 3-(4,5-dimethylthiazol-2-yl)-2,5-diphenyltetrazolium bromide (MTT) to blue, insoluble formazan crystals by cellular reductase processes in living cells. Cells were trypsinized from monolayers and seeded in complete medium in 96 well plates. Cancerous cell lines (DU145, DU145-TXR, A2780, A2780-ADR) were seeded at 3,000 cells per well in complete RPMI medium. The non-cancerous HFL1 line was seeded at 4,000 cells per well in complete F12K medium, in collagen-treated plates (Collagen Type 1, Gibco). Cells were incubated with experimental compounds for 48 hours at 37 °C and 5% CO2 in a humidified incubator. At 48 hours, MTT was added (20 µL/well of 5 mg/mL MTT in PBS) to each well. After incubation for 4 hours, the media was removed, and the formazan crystals were dissolved in 100 µL DMSO per well. Plates containing the semi-adherent A2780 or A2780-ADR lines were spun at 1400 rpm for 3 minutes prior to aspiration of media, and the addition of DMSO. Plates were shaken for 10 minutes at 500 rpm on an Orbital shaker (LabDoctor from MidSci, St Louis, MO). The absorbance was measured at 570 nm using a Bio-Tek Cytation 5 (Bio-Tek, Winooski, VT). The measured absorbance value was correlated with the number of metabolically active cells in that well, corrected for absorbance of media. […]

P-gp = experiment: SWISS-ADME prediction of P-gp transport substrate; settings: prediction compared to the LC-MS/MS intracellular accumulation data
Excerpt: Identifying P-gp inhibitors that are not transport substrates remains inherently challenging. To that end, computational tools such as the SWISS-ADME server attempt to use a molecule’s unique chemical and structural characteristics to predict whether it is likely to be a P-gp transport substrate. Our LC-MS/MS assays allowed us to retroactively test the validity of predictions from SWISS-ADME. […] Alternative identifiers for the molecules identified in this study are shown in S7 Table.
S1 Table. Known P-gp Inhibitors and Predicted Chemical Properties. A non-exhaustive list of known P-gp inhibitors and their selected chemical properties ^[64, 65]. Clinical trial outcomes were adapted from ^[10, 11]. Compounds were evaluated using the SWISS-ADME server ^[54]. […] “Predicted P-gp Substrate” - predicted by SWISS-ADME to be a transport substrate of P-gp. “Known P-gp Substrate” – In addition to being P-gp inhibitors, these molecules are: known transport substrates of P-gp, known non-transport substrates of P-gp, unknown whether it is a transport substrate of P-gp ^[66-68]. If the molecule is designated in a specific generation of P-gp inhibitors - First Generation P-gp inhibitors, Second generation P-gp inhibitors, Third generation P-gp inhibitors.

SMILES: O=C(c1nc(-c2ccccn2)no1)N1CCN(c2nsc3ccccc23)CC1 [Compound 124, O=C(N1CCN(CC1)c1nsc2ccccc12)c1nc(no1)-c1ccccn1]
- Reversal of MDR in A2780-ADR cells (A2780-ADR cells; 15 µM compound with or without 500 nM PTX, 48 h, MTT): reversed MDR in A2780-ADR cells
- Mean % Survival (A2780-ADR cells; A2780-ADR cells, 15 µM compound + 500 nM PTX, mean of 12 samples): 52.5%
- % Survival (individual sample) (A2780-ADR cells; A2780-ADR cells, 15 µM compound + 500 nM PTX): 58%
- % Survival (individual sample) (A2780-ADR cells; A2780-ADR cells, 15 µM compound alone): 94% and 91%
- viability at 15 µM (A2780-ADR cells; Homo sapiens, A2780 ADR, A2780-ADR cells, 15 µM compound alone, mean of 12 samples, read-out: Mean % Survival): 92.5%
- Correct P-gp Substrate Prediction? (P-gp): No

Source: article PMC12349723, “Computationally accelerated identification of P-glycoprotein inhibitors” (PLOS One, 2025)
